Each structure is given as a SMILES string.

This is an account of results in patent US4455315A, “N-(Difluoromethoxy substituted phenyl)-dichloromaleimides used in agricultural and horticultural fungicidal methods” (Showa Denko Kabushiki Kaisha, priority 1980, dated 1984).

Series [1] has as its system Diaporthe citri. Description: Test of Residual Activity against Citrus Melanose. Format: in vivo. The note with it: 1000 ppm, 23 mm/hr of rain; for Infested Leaves (%): 24 days after inoculation; for Infestation Rate: 24 days, (Σnf/4N)×100; for Number of Leaves Showing Each Infestation Index: 0: index 0 = 0-25% infested area; for Number of Leaves Showing Each Infestation Index: 1: index 1 = 26-50% infested area; for Number of Leaves Showing Each Infestation Index: 2: index 2 = 51-75% infested area; for Number of Leaves Showing Each Infestation Index: 3: index 3 = 76-90% infested area; for Number of Leaves Showing Each Infestation Index: 4: index 4 = 91-100% infested area.

Series [2] relates to potted young oranges (variety: Unshu). Description: Phytotoxicity of treating compound, residual activity test. The note with it: 1000 ppm, 23 mm/hr of rain.
In series [3] the test system is Alternaria kikuchiana. The series is described as follows: Spore-germination Inhibiting Test. Format: cell-based. The note with it: 10 ppm, 27° C., 20 hours. Here is the method: Spore-germination Inhibiting Test for Alternaria kukuchiana An apricot medium is inoculated with Alternaria kikuchiana and incubated at a temperature of 27° C. for 7-10 days to form conidia on the medium. […] 0.02 Ml of the prepared spore suspension containing the compound according to the present invention is dropped on a slide glass and incubated at a temperature of 27° C. under moist conditions for 20 hours. Thereafter, whether or not the spores germinate is examined under a microscope and the spore-germination rate is then calculated.

For series [4], the system named is Alternaria kikuchiana. Description: Pear Black Spot-controlling Test. The note with it: 500 ppm, six days after inoculation.
Method: Pear Black Spot (Alternaria kikuchiana)-controlling Test
(§1) The resulting solution is sprayed on unfolded leaves of potted young pears (variety: Niju-seiki) in an amount corresponding to 600 l/10a per pot. After air-drying, the unfolded leaves are inoculated with Alternaria kikuchiana, by spraying a suspension of conidia thereof containing 30 conidia per microscopic field (magnification: X200).
(§2) After inoculation, the potted young pears are allowed to stand at a temperature of 27° C. in a moist room for one day and then transferred to a greenhouse. Six days after inoculation, the leaf area infested by pear black spot, i.e., the area of pathologic spots on a leaf is examined on 5 unfolded leaves per pot and an average infestation rate is then calculated.
For series [5], the system named is potted young oranges (variety: Unshu). The series is described as follows: Phytotoxicity of treating compound, Citrus Melanose test. As to conditions: 500 ppm.
Series [6] concerns potted young pears (variety: Niju-seiki). The series is described as follows: Phytotoxicity of treating compound, Pear Black Spot test. The note with it: 500 ppm, damaged area on leaves.
Method: as §1, §2
*The phytotoxicity of the treating compound is evaluated according to the
For series [7], the system named is Diaporthe citri. The series is described as follows: Citrus Melanose-controlling Test. Format: in vivo. The note with it: 500 ppm; for Infested Leaves (%): 24 days after inoculation; for Infestation Rate / Number of Leaves Showing Infestation Index 0 / Number of Leaves Showing Infestation Index 1 / Number of Leaves Showing Infestation Index 2 / Number of Leaves Showing Infestation Index 3 / Number of Leaves Showing Infestation Index 4: 24 days; for Infestation Rate: (Σnf/4N)×100; for Number of Leaves Showing Infestation Index 0: index 0 = 0-25% infested area; for Number of Leaves Showing Infestation Index 1: index 1 = 26-50% infested area; for Number of Leaves Showing Infestation Index 2: index 2 = 51-75% infested area; for Number of Leaves Showing Infestation Index 3: index 3 = 76-90% infested area; for Number of Leaves Showing Infestation Index 4: index 4 = 91-100% infested area.

For the molecule `O=C1C=CC(=O)N1c1ccccc1OC(F)F` [compound 4], in series [1], the “Infested Leaves (%)” value is 82%, the “Infestation Rate” value turned out to be 30, the “Number of Leaves Showing Each Infestation Index: 0” value was determined as 30 leaves and the “Number of Leaves Showing Each Infestation Index: 1” value is on record as 82 leaves. For the same molecule, in series [1], the “Number of Leaves Showing Each Infestation Index: 2” value is 43 leaves, the “Number of Leaves Showing Each Infestation Index: 3” value is 10 leaves and the “Number of Leaves Showing Each Infestation Index: 4” value came out at 0 leaves. The “Phytotoxicity of Treating Compound” value in series [2] is on record as “+ (6-25%)”. The “Spore-germination Rate (%)” value in series [3] is 7%. In addition, the “Average Infestation Rate (%) (Based on infested area)” value (shortened to “Average Infestation Rate (%)”) in series [4] was 15%. Besides, in series [5], the “Phytotoxicity of Treating Compound” value is reported as “- (0%)”. In series [6], the “Phytotoxicity of Treating Compound” value was “± (1-5%)”. Besides, in series [7], the “Infested Leaves (%)” value amounted to 1.0%, the “Infestation Rate” value came out at 0.2, the “Number of Leaves Showing Infestation Index 0” value came to 218 leaves and the “Number of Leaves Showing Infestation Index 1” value was determined as 2 leaves. Besides, in series [7], the “Number of Leaves Showing Infestation Index 2” value is on record as 0 leaves, the “Number of Leaves Showing Infestation Index 3” value is listed as 0 leaves and the “Number of Leaves Showing Infestation Index 4” value was 0 leaves.
As to `O=C1C(Cl)=C(Cl)C(=O)N1c1cccc(OC(F)F)c1` [compound 2, 2,3-dichloro-N-(m-difluoromethoxyphenyl)maleimide], in series [1], the “Infested Leaves (%)” value turned out to be 2%, the “Infestation Rate” value is reported as 0.5, the “Number of Leaves Showing Each Infestation Index: 0” value was 181 leaves and the “Number of Leaves Showing Each Infestation Index: 1” value stood at 4 leaves. Moreover, in series [1], the “Number of Leaves Showing Each Infestation Index: 2” value was 0 leaves, the “Number of Leaves Showing Each Infestation Index: 3” value amounted to 0 leaves and the “Number of Leaves Showing Each Infestation Index: 4” value is 0 leaves. In series [2], the “Phytotoxicity of Treating Compound” value is recorded as “± (1-5%)”. The “Spore-germination Rate (%)” value in series [3] is 0%. In addition, the “Average Infestation Rate (%)” value in series [4] is reported as 9%. Besides, in series [5], the “Phytotoxicity of Treating Compound” value is reported as “- (0%)”. For the same molecule, in series [6], the “Phytotoxicity of Treating Compound” value is reported as “± (1-5%)”. Further, in series [7], the “Infested Leaves (%)” value is 0.5%, the “Infestation Rate” value is 0.1, the “Number of Leaves Showing Infestation Index 0” value came out at 210 leaves and the “Number of Leaves Showing Infestation Index 1” value came to 1 leaves. Besides, in series [7], the “Number of Leaves Showing Infestation Index 2” value was determined as 0 leaves, the “Number of Leaves Showing Infestation Index 3” value is reported as 0 leaves and the “Number of Leaves Showing Infestation Index 4” value amounted to 0 leaves.
As for `COc1ccccc1N1C(=O)C(Cl)=C(Cl)C1=O` [compound 7], in series [1], the “Infested Leaves (%)” value is reported as 29%, the “Infestation Rate” value was 9, the “Number of Leaves Showing Each Infestation Index: 0” value stood at 115 leaves and the “Number of Leaves Showing Each Infestation Index: 1” value is given as 36 leaves. For the same molecule, in series [1], the “Number of Leaves Showing Each Infestation Index: 2” value stood at 11 leaves, the “Number of Leaves Showing Each Infestation Index: 3” value is listed as 1 leaves and the “Number of Leaves Showing Each Infestation Index: 4” value is given as 0 leaves. Moreover, the “Phytotoxicity of Treating Compound” value in series [2] is reported as “+ (6-25%)”. Besides, the “Spore-germination Rate (%)” value in series [3] was 75%. Also, the “Average Infestation Rate (%)” value in series [4] is reported as 32%. The “Phytotoxicity of Treating Compound” value in series [5] was “+ (6-25%)”. For the same molecule, the “Phytotoxicity of Treating Compound” value in series [6] is given as “++ (26-50%)”. In series [7], the “Infested Leaves (%)” value is 98%, the “Infestation Rate” value was determined as 43, the “Number of Leaves Showing Infestation Index 0” value turned out to be 5 leaves and the “Number of Leaves Showing Infestation Index 1” value was found to be 85 leaves. In series [7], the “Number of Leaves Showing Infestation Index 2” value was 111 leaves, the “Number of Leaves Showing Infestation Index 3” value is given as 32 leaves and the “Number of Leaves Showing Infestation Index 4” value is given as 0 leaves.
Turning to `CC(C)NC(=O)N1CC(=O)N(c2cc(Cl)cc(Cl)c2)C1=O` [iprodione, 1-Isopropylcarbamoyl-3-(3',5'-dichlorophenyl)-hydantoin], the “Average Infestation Rate (%)” value in series [4] stood at 11%. Besides, the “Phytotoxicity of Treating Compound” value in series [6] is “- (0%)”.
Turning to `COc1cccc(N2C(=O)C(Cl)=C(Cl)C2=O)c1` [compound 8], in series [1], the “Infested Leaves (%)” value is 78%, the “Infestation Rate” value is listed as 31, the “Number of Leaves Showing Each Infestation Index: 0” value was determined as 35 leaves and the “Number of Leaves Showing Each Infestation Index: 1” value stood at 58 leaves. In series [1], the “Number of Leaves Showing Each Infestation Index: 2” value is reported as 61 leaves, the “Number of Leaves Showing Each Infestation Index: 3” value was 7 leaves and the “Number of Leaves Showing Each Infestation Index: 4” value is reported as 0 leaves. Moreover, the “Phytotoxicity of Treating Compound” value in series [2] was “- (0%)”. The “Spore-germination Rate (%)” value in series [3] was 25%. In series [4], the “Average Infestation Rate (%)” value was found to be 20%. Moreover, the “Phytotoxicity of Treating Compound” value in series [5] is listed as “- (0%)”. Besides, the “Phytotoxicity of Treating Compound” value in series [6] is on record as “± (1-5%)”. Also, in series [7], the “Infested Leaves (%)” value is 10%, the “Infestation Rate” value worked out at 3.3, the “Number of Leaves Showing Infestation Index 0” value is reported as 109 leaves and the “Number of Leaves Showing Infestation Index 1” value is reported as 14 leaves. For the same molecule, in series [7], the “Number of Leaves Showing Infestation Index 2” value is 7 leaves, the “Number of Leaves Showing Infestation Index 3” value was 1 leaves and the “Number of Leaves Showing Infestation Index 4” value was found to be 0 leaves.
As for `COc1ccc(N2C(=O)C(Cl)=C(Cl)C2=O)cc1` [compound 9], in series [1], the “Infested Leaves (%)” value came out at 36%, the “Infestation Rate” value amounted to 12, the “Number of Leaves Showing Each Infestation Index: 0” value is reported as 113 leaves and the “Number of Leaves Showing Each Infestation Index: 1” value was 45 leaves. In addition, in series [1], the “Number of Leaves Showing Each Infestation Index: 2” value was 18 leaves, the “Number of Leaves Showing Each Infestation Index: 3” value is 1 leaves and the “Number of Leaves Showing Each Infestation Index: 4” value came out at 0 leaves. Also, the “Phytotoxicity of Treating Compound” value in series [2] is reported as “- (0%)”. For the same molecule, the “Spore-germination Rate (%)” value in series [3] is on record as 9%. In series [4], the “Average Infestation Rate (%)” value was 28%. The “Phytotoxicity of Treating Compound” value in series [5] is on record as “- (0%)”. Further, the “Phytotoxicity of Treating Compound” value in series [6] is “± (1-5%)”. Besides, in series [7], the “Infested Leaves (%)” value came to 98%, the “Infestation Rate” value is listed as 43, the “Number of Leaves Showing Infestation Index 0” value was found to be 5 leaves and the “Number of Leaves Showing Infestation Index 1” value was 86 leaves. Also, in series [7], the “Number of Leaves Showing Infestation Index 2” value came out at 115 leaves, the “Number of Leaves Showing Infestation Index 3” value is 30 leaves and the “Number of Leaves Showing Infestation Index 4” value came to 0 leaves.
In the case of `O=C1C=CC(=O)N1c1ccc(OC(F)F)cc1` [compound 6], in series [1], the “Infested Leaves (%)” value stood at 91%, the “Infestation Rate” value is on record as 34, the “Number of Leaves Showing Each Infestation Index: 0” value turned out to be 15 leaves and the “Number of Leaves Showing Each Infestation Index: 1” value turned out to be 86 leaves. Moreover, in series [1], the “Number of Leaves Showing Each Infestation Index: 2” value is given as 45 leaves, the “Number of Leaves Showing Each Infestation Index: 3” value was 13 leaves and the “Number of Leaves Showing Each Infestation Index: 4” value came out at 0 leaves. Further, in series [2], the “Phytotoxicity of Treating Compound” value is given as “+ (6-25%)”. Moreover, in series [3], the “Spore-germination Rate (%)” value is recorded as 4%. Besides, in series [4], the “Average Infestation Rate (%)” value is given as 36%. Besides, in series [5], the “Phytotoxicity of Treating Compound” value is given as “+ (6-25%)”. In series [6], the “Phytotoxicity of Treating Compound” value was “++ (26-50%)”. Moreover, in series [7], the “Infested Leaves (%)” value came out at 98%, the “Infestation Rate” value is reported as 43, the “Number of Leaves Showing Infestation Index 0” value came to 257 leaves and the “Number of Leaves Showing Infestation Index 1” value amounted to 110 leaves. Moreover, in series [7], the “Number of Leaves Showing Infestation Index 2” value turned out to be 103 leaves, the “Number of Leaves Showing Infestation Index 3” value is 44 leaves and the “Number of Leaves Showing Infestation Index 4” value is recorded as 0 leaves.
Take `[Cu+2].[O-]c1cccc2cccnc12.[O-]c1cccc2cccnc12` [oxinecopper, 8-Hydroxyquinoline-Cu]: in series [1], the “Infested Leaves (%)” value stood at 81%, the “Infestation Rate” value amounted to 26, the “Number of Leaves Showing Each Infestation Index: 0” value came to 35 leaves and the “Number of Leaves Showing Each Infestation Index: 1” value was found to be 113 leaves. In addition, in series [1], the “Number of Leaves Showing Each Infestation Index: 2” value turned out to be 37 leaves, the “Number of Leaves Showing Each Infestation Index: 3” value was determined as 2 leaves and the “Number of Leaves Showing Each Infestation Index: 4” value came to 0 leaves. Also, the “Phytotoxicity of Treating Compound” value in series [2] is recorded as “± (1-5%)”.
